Key:
[1] = molecular target: p38 MAPKα isoform (MAPK14) (Homo sapiens (Human), UniProt Q16539); assay: p38 MAPKα enzyme inhibition (FRET, Z-LYTE); type: biochemical
Procedure: The enzyme inhibitory activities of compounds disclosed herein were determined by FRET using synthetic peptides labelled with both donor and acceptor fluorophores (Z-LYTE, Invitrogen Ltd., Paisley, UK). The inhibitory activities of test compounds against the p38 MAPKα isoform (MAPK14: Invitrogen), were evaluated indirectly by determining the level of activation/phosphorylation of the down-stream molecule, MAPKAP-K2. […] The mixture was incubated for 1 hr at RT. Development reagent (protease, 5 μL) was added for 1 hr prior to detection in a fluorescence microplate reader (Varioskan® Flash, ThermoFisher Scientific). In all cases, the site-specific protease cleaves non-phosphorylated peptide only and eliminates the FRET signal. Phosphorylation levels of each reaction were calculated using the ratio of coumarin emission (donor) over fluorescein emission (acceptor), for which low ratios indicate high phosphorylation and high ratios indicate low phosphorylation levels.

p38MAPKγ (MAPK12) = p38MAPKγ (MAPK12) (Homo sapiens (Human), UniProt P53778); assay: p38 MAPKγ enzyme inhibition (FRET, Z-LYTE); type: biochemical
Procedure: The enzyme inhibitory activities of compounds disclosed herein were determined by FRET using synthetic peptides labelled with both donor and acceptor fluorophores (Z-LYTE, Invitrogen Ltd., Paisley, UK). […] Development reagent (protease, 5 μL) was added for 1 hr prior to detection in a fluorescence microplate reader (Varioskan® Flash, Thermo Scientific). In all cases, the site-specific protease cleaves non-phosphorylated peptide only and eliminates the FRET signal. Phosphorylation levels of each reaction were calculated using the ratio of coumarin emission (donor) over fluorescein emission (acceptor), for which low ratios indicate high phosphorylation and high ratios indicate low phosphorylation levels.

GSK 3α enzyme isoform = GSK 3α enzyme isoform (Homo sapiens (Human), UniProt P49840); assay: GSK 3α enzyme inhibition (FRET, Z-LYTE); type: biochemical; details: read-out: IC50 Values for Enzyme Inhibition GSK3α
Procedure: The enzyme inhibitory activities of compounds disclosed herein were determined by FRET using synthetic peptides labelled with both donor and acceptor fluorophores (Z-LYTE, Invitrogen Ltd., Paisley, UK).
The inhibitory activities of test compounds against the GSK 3α enzyme isoform (Invitrogen), were evaluated by determining the level of activation/phosphorylation of the target peptide.
The GSK3-α protein (500 ng/mL, 2.5 μL) was mixed with the test compound (2.5 μL at either 4 μg/mL, 0.4 μg/mL, 0.04 μg/mL, or 0.004 μg/mL) for 2 hr at RT. The FRET peptide (8 μM, 2.5 μL), which is a phosphorylation target for GSK3α, and ATP (40 μM, 2.5 μL) were then added to the enzyme/compound mixture and the resulting mixture incubated for 1 hr. Development reagent (protease, 5 μL) was added for 1 hr prior to detection in a fluorescence microplate reader (Varioskan® Flash, ThermoFisher Scientific).
In all cases, the site-specific protease cleaves non-phosphorylated peptide only and eliminates the FRET signal. Phosphorylation levels of each reaction were calculated using the ratio of coumarin emission (donor) over fluorescein emission (acceptor), for which low ratios indicate high phosphorylation and high ratios indicate low phosphorylation levels.

[2] = system: ICAM-1 expression in BEAS2B cells; assay: Poly I:C-induced ICAM-1 expression in BEAS2B cells; type: cell-based, human; details: Homo sapiens, BEAS-2B, read-out: PolyIC/ICAM1 IC50 (BEAS2B)
Procedure: Poly I:C was used in these studies as a simple, RNA virus mimic. Poly I:C-Oligofectamine mixture (1 μg/mL Poly I:C, ±2% Oligofectamine, 25 μL; Invivogen Ltd., San Diego, Calif., and Invitrogen, Carlsbad, Calif., respectively) was transfected into BEAS2B cells (human bronchial epithelial cells, ATCC). Cells were pre-incubated with final concentrations of test compounds for 2 hr and the level of ICAM-1 expression on the cell surface was determined by cell-based ELISA. At a time point 18 hr after poly I:C transfection, cells were fixed with 4% formaldehyde in PBS (100 μL) and then endogenous peroxidase was quenched by the addition of washing buffer (100 μL, 0.05% Tween in PBS: PBS-Tween) containing 0.1% sodium azide and 1% hydrogen peroxide. Cells were washed with wash-buffer (3×200 μL). and after blocking the wells with 5% milk in PBS-Tween (100 μL) for 1 hr, the cells were incubated with anti-human ICAM-1 antibody (50 μL; Cell Signaling Technology, Danvers, Mass.) in 1% BSA PBS overnight at 4° C.
The cells were washed with PBS-Tween (3×200 μL) and incubated with the secondary antibody (100 μL; HRP-conjugated anti-rabbit IgG, Dako Ltd., Glostrup, Denmark). The cells were then incubated with of substrate (50 μL) for 2-20 min, followed by the addition of stop solution (50 μL, 1N H2SO4). The ICAM-1 signal was detected by reading […] the absorbance at 450 nm against a reference wavelength of 655 nm using a spectrophotometer. The cells were then washed with PBS-Tween (3×200 μL) and total cell numbers in each well were determined by reading absorbance at 595 nm after Crystal Violet staining (50 μL of a 2% solution in PBS) and elution by 1% SDS solution (100 μL) in distilled water. The measured OD 450-655 readings were corrected for cell number by dividing with the OD595 reading in each well. The inhibition of ICAM-1 expression was calculated at each concentration of test compound by comparison with vehicle control.

d-U937 cells = assay: Cell viability: MTT assay; type: cell-based, human; details: 1 μg/mL
Procedure: Differentiated U937 cells were pre-incubated with each test compound (final concentration 1 μg/mL or 10 μg/mL in 200 μL media indicated below) under two protocols: the first for 4 hr in 5% FCS RPMI1640 media and the second in 10% FCS RPMI1640 media for 24 h. The supernatant was replaced with new media (200 μL) and MTT stock solution (10 μL, 5 mg/mL) was added to each well. After incubation for 1 hr the media were removed, DMSO (200 μL) was added to each well and the plates were shaken lightly for 1 hr prior to reading the absorbance at 550 nm. The percentage loss of cell viability was calculated for each well relative to vehicle (0.5% DMSO) treatment. Consequently an apparent increase in cell viability for drug treatment relative to vehicle is tabulated as a negative percentage.

Chain of GSK 3α enzyme isoform (P49840 whole entry, canonical isoform): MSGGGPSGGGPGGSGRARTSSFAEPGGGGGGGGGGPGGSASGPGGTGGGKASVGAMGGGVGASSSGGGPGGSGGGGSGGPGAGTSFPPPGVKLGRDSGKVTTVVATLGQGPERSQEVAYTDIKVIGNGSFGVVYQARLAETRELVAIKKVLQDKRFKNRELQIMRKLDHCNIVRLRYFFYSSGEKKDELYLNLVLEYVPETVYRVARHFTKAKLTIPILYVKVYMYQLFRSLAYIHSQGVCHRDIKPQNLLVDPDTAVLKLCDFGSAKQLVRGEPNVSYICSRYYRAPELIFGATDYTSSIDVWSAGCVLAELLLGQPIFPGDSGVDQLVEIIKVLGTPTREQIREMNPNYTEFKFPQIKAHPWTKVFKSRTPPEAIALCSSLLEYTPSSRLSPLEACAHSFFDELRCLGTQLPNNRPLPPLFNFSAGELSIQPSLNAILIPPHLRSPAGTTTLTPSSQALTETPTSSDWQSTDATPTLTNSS
Chain of p38MAPKγ (MAPK12) (P53778 whole entry): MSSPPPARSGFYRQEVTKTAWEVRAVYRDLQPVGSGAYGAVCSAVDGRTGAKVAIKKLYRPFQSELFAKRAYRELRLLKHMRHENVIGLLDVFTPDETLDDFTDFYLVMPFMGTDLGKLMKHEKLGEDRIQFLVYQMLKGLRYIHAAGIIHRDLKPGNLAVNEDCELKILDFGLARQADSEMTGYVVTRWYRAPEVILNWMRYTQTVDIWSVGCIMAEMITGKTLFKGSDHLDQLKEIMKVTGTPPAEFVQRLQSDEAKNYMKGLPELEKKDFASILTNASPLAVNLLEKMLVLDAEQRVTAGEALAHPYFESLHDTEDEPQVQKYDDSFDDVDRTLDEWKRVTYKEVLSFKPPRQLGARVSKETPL
Chain of p38 MAPKα isoform (MAPK14) (Q16539 whole entry, canonical isoform): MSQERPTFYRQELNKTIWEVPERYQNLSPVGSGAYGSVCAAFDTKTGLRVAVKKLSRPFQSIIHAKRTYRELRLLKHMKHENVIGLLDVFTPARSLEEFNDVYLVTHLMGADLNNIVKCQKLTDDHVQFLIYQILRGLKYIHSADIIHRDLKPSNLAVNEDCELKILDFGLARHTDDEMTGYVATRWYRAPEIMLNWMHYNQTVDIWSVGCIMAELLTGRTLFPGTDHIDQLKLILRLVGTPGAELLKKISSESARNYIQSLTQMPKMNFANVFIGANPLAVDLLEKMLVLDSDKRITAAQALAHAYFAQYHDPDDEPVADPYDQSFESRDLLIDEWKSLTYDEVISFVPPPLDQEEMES

SMILES | IC50 [1] | IC50 (p38MAPKγ (MAPK12)) | IC50 (GSK 3α enzyme isoform) | IC50 [2] | MTT Assay Cell viability at time point in d-U937 Cells (d-U937 cells; 4 h) | MTT Assay Cell viability at time point in d-U937 Cells (d-U937 cells; 24 h)
Cc1ccc(-n2nc(C(C)(C)C)cc2NC(=O)Nc2ccc(Oc3ccnc(Nc4cc(C)ccc4C)n3)c3ccccc23)cc1 [Example 10, 1-(3-(tert-butyl)-1-(p-tolyl)-1H-pyrazol-5-yl)-3-(4-((2-((2,5-dimethylphenyl)amino)pyrimidin-4-yl)oxy)naphthalen-1-yl)urea] | 195 nM | > 16300 nM | > 16300 nM | 43 nM | −ve (−ve and +ve indicate the value is below and above respectively, the no significant effect threshold defined as 30% inhibition at 1 μg/mL at the time point indicated) | −ve (−ve and +ve indicate the value is below and above respectively, the no significant effect threshold defined as 30% inhibition at 1 μg/mL at the time point indicated)
COc1ccc(Nc2nccc(Oc3ccc(NC(=O)Nc4cc(C(C)(C)C)nn4-c4ccc(C)cc4)c4ccccc34)n2)cc1Cl [Example 28, 1-(3-(tert-butyl)-1-(p-tolyl)-1H-pyrazol-5-yl)-3-(4-((2-((3-chloro-4-methoxyphenyl)amino)pyrimidin-4-yl)oxy)naphthalen-1-yl)urea] | 1420 nM | > 1540 nM | > 1540 nM | 3 nM | −ve (−ve and +ve indicate the value is below and above respectively, the no significant effect threshold defined as 30% inhibition at 1 μg/mL at the time point indicated) | −ve (−ve and +ve indicate the value is below and above respectively, the no significant effect threshold defined as 30% inhibition at 1 μg/mL at the time point indicated)
Cc1ccc(-n2nc(C(C)(C)C)cc2NC(=O)Nc2ccc(Oc3ccnc(Nc4ccc(O)cc4Cl)n3)c3ccccc23)cc1 [Example 31, 1-(3-(tert-butyl)-1-(p-tolyl)-1H-pyrazol-5-yl)-3-(4-((2-((2-chloro-4-hydroxyphenyl)amino)pyrimidin-4-yl)oxy)naphthalen-1-yl)urea] | 118 nM | > 1580 nM | > 1580 nM | 80 nM | −ve (−ve and +ve indicate the value is below and above respectively, the no significant effect threshold defined as 30% inhibition at 1 μg/mL at the time point indicated) | −ve (−ve and +ve indicate the value is below and above respectively, the no significant effect threshold defined as 30% inhibition at 1 μg/mL at the time point indicated)
COc1ccc(Nc2nccc(Oc3ccc(NC(=O)Nc4cc(C(C)(C)C)nn4-c4ccc(C)cc4)c4ccccc34)n2)cc1 [Example 17, 1-(3-(tert-butyl)-1-(p-tolyl)-1H-pyrazol-5-yl)-3-(4-((2-((4-methoxyphenyl)amino)pyrimidin-4-yl)oxy)naphthalen-1-yl)urea] | 83 nM | > 16300 nM | > 16300 nM | 6.7 nM | −ve (−ve and +ve indicate the value is below and above respectively, the no significant effect threshold defined as 30% inhibition at 1 μg/mL at the time point indicated) | −ve (−ve and +ve indicate the value is below and above respectively, the no significant effect threshold defined as 30% inhibition at 1 μg/mL at the time point indicated)
Cc1ccc(-n2nc(C(C)(C)C)cc2NC(=O)Nc2ccc(Oc3ccnc(Nc4cccc(F)c4)n3)c3ccccc23)cc1 [Example 15, 1-(3-(tert-butyl)-1-(p-tolyl)-1H-pyrazol-5-yl)-3-(4-((2-((3-fluorophenyl)amino)pyrimidin-4-yl)oxy)naphthalen-1-yl)urea] | 155 nM | > 16600 nM | > 16600 nM | 9.3 nM | −ve (−ve and +ve indicate the value is below and above respectively, the no significant effect threshold defined as 30% inhibition at 1 μg/mL at the time point indicated) | −ve (−ve and +ve indicate the value is below and above respectively, the no significant effect threshold defined as 30% inhibition at 1 μg/mL at the time point indicated)
Cc1ccc(-n2nc(C(C)(C)C)cc2NC(=O)Nc2ccc(Oc3ccnc(Nc4ccc(O)cc4F)n3)c3ccccc23)cc1 [Example 30, 1-(3-(tert-butyl)-1-(p-tolyl)-1H-pyrazol-5-yl)-3-(4-((2-((2-fluoro-4-hydroxyphenyl)amino)pyrimidin-4-yl)oxy)naphthalen-1-yl)urea] | 68 nM | > 1620 nM | > 1620 nM | 11 nM | −ve (−ve and +ve indicate the value is below and above respectively, the no significant effect threshold defined as 30% inhibition at 1 μg/mL at the time point indicated) | −ve (−ve and +ve indicate the value is below and above respectively, the no significant effect threshold defined as 30% inhibition at 1 μg/mL at the time point indicated)
Cc1ccc(-n2nc(C(C)(C)C)cc2NC(=O)Nc2ccc(Oc3ccnc(Nc4ccccc4C(C)C)n3)c3ccccc23)cc1 [Example 20, 1-(3-(tert-butyl)-1-(p-tolyl)-1H-pyrazol-5-yl)-3-(4-((2-((2-isopropylphenyl)amino)pyrimidin-4-yl)oxy)naphthalen-1-yl)urea] | 9 nM | > 16000 nM | > 16000 nM | 16 nM | −ve (−ve and +ve indicate the value is below and above respectively, the no significant effect threshold defined as 30% inhibition at 1 μg/mL at the time point indicated) | −ve (−ve and +ve indicate the value is below and above respectively, the no significant effect threshold defined as 30% inhibition at 1 μg/mL at the time point indicated)
